Experimental data as given in US20180318379A1, “INHIBITION OF TRIGGERING RECEPTOR EXPRESSED ON MYELOID CELLS 1 (TREM1) TO TREAT CENTRAL NERVOUS SYSTEM DISORDERS” (The Board of Trustees of the Leland Stanford Junior …, priority 2017, published 2018).

Tests used:
[1] = test system: TREM1; assay: Neuroscore after MCAo-RP stroke in mice; type: in vivo; details: 2 days after MCAo-RP; LP17 vs scrambled peptide; n=15-18 per group; ANOVA effect of LP17 p=0.008
[2] = test system: TREM1; assay: FACS quantification of brain myeloid cells after MCAo-RP stroke; type: in vivo, mice
Experimental: FIG. 12. A representation of the dynamics of immune present at the indicated days after stroke (or the temporal dynamics of immune cell subsets). Stroke was modeled in […] 3 mo male mice using 45 minutes of middle cerebral artery occlusion (MCAo) followed by reperfusion (RP).
These plots show increased CD11b^+/CD45^lo microglia and reduced CD11b^+/CD45^hi macrophages with LP17 treatment.

[3] = 2 days after MCAo-RP, LP17 vs scrambled peptide

Sequence: LQVTDSGLYRCVIYHPP [LP17]
- neuroscores [1]: improved
- CD11b+/CD45hi macrophages in stroked hemisphere (FACS) [2, 3]: reduced
- CD11b+/CD45lo microglia in stroked hemisphere (FACS) [2, 3]: increased
- infiltration of macrophages after stroke ([2]; after MCAo-RP stroke): reduces infiltration of macrophages
